# Measurements published in patent publication US20250127772A1, “SPECIFIC TETRADENTATE COPPER CHELATORS FOR THE TREATMENT OF WILSON'S DISEASE” (GUANGDONG UNIVERSITY OF TECHNOLOGY, priority 2023, published 2025).
# Several values for one entry are separate records, joined by “and”; a condition that tells them apart may be missing. Equal entries are not always repeated. Where two headings read alike, the source gives them in different places.
# Tests used:
# [1] = tested on: homozygous toxic-milk mouse model (TX model); type: in vivo; settings: for Cu content Brain / Cu content Feces / Cu content Kidney / Cu content Liver / Cu content Serum / Cu content Urine: mean of 6 mice ± SEM
# Text: The selected drug-candidate TDMQ20 has been evaluated on the homozygous toxic-milk mouse model (TX model), a regular murine model of Wilson disease, suitable for evaluation of drug-candidates (for a review, see E. Reed et al., J. Neurochem., 146, 356-373, 2018). TX mice are bearing a naturally occurring point mutation on ATP7B resulting in a methionine changed for a valine, that causes the loss of copper transportation by this protein. C57BL/6 mice have no mutation on ATP7B and were used as control mice in the evaluation of TDMQ20. TX mice were provided by Sun Yat-Sen University (Guangzhou) and C57BL/6 mice by the Guangdong experimental animal center (Guangzhou) and all experiments were performed according to protocols approved by the Welfare Laboratory Animals Committee of the Guangdong University of Technology (approval n° GDUTXS2022083 dated on 3 Aug. 2022), in the framework of the 3 Rs principle.
# […] TX mice (WD) and 8-week-old C57BL/6 mice (Control) were used. TX mice (as WD, TDMQ-L, TDMQ-M, TDMQ-H groups, respectively) received the drug TDMQ20 by intragastric gavage twice a day for 14 consecutive days (at 0, 12.5, 25.0, 50.0 mg/kg in NaCl 0.9%). On the same schedule, C57BL/6 mice (as control group) received NaCl 0.9%. Treatment of WD mice with DPA (200 mg/kg) was used as comparison (DPA group). Six groups of 6 mice were used.
# At the end of the treatment period, mice (10-week old) were placed in metabolic cages for 12 h in order to collect urine and feces. At the end of this 12 h-period, mice were anesthetized using 2.5% Avertin diluted in 0.9% NaCl at a dose of […] body weight and sacrificed. Cardiac blood was collected and left at room temperature for 30 minutes before centrifugation at 4° C. at 3000 r/min for 10 minutes to obtain serum samples. During this 30-min period, liver, kidney, brain and serum were also collected. Copper concentrations in urine and feces, serum, liver, kidney and brain were determined by inductively coupled plasma mass spectrometry (ICP-MS). Data analysis was carried out using SPSS Statistics software (version 26). Data are provided as mean values±standard error of the mean (SEM). Statistical analyses were performed using one-way ANOVA for liver, feces and urine, and by non-parametric test for serum, kidney, and brain. Differences with p>0.05 were considered as no significance (ns), * p<0.05, ** p<0.01, and *** p<0.001, n=6. Graph presentations were drawn with Prism GraphPad 8.0.2.
# [2] = tested on: serum DEPs; assay: Serum differentially expressed proteins (TMT LC-MS/MS) in treated TX mice; type: in vivo, mouse
# Method: (§1) In order to confirm the positive role of TDMQ20 in the treatment of TX mice, we performed proteomic experiments. Samples from three mice of each group were depicted in Table 1, The samples were treated with TMT (Tandem Mass Tag) and detected by quantitative LC-MS/MS, then the data were analyzed with ProteomeDiscoverer 2.4.1.15 (ThermoFisher Scientific). Confidence proteins were screened according to the criteria of Sequest program score greater than 0 and number of unique peptides greater than or equal to 1, and blank values were removed.
# Other differentially expressed proteins (DEPs) were screened at p<0.05 in the WD mouse group compared to the control group. […] Results are reported in Table 3 and 4 for hepatic and serum proteins, respectively.
# [3] = tested on: ceruloplasmin (CP); assay: Serum ceruloplasmin by TMT LC-MS/MS in treated TX mice; type: in vivo, mouse; settings: for CP level compared with control mice: serum of TX mice
# Method: as §1
# The concentration of ceruloplasmin (CP), that contains the most part of blood copper, was measured by TMT LC-MS/MS in the serum of WD mice. […] The CP level was equal (25 mg/kg) or higher (50 mg/kg) than that observed in control mice. Since the level of CP is considered as a significant parameter in the clinical control of human Wilson's disease, the reversal of the CP impairment upon treatment by TDMQ20 confirms that this drug has a very good profile as drug-candidate for the treatment of Wilson's disease.
# [4] = TX mice, TDMQ20-H 50 mg/kg/day gavage 14 days
# [5] = TX mice, TDMQ20-L 12.5 mg/kg/day gavage 14 days
# [6] = TX mice, TDMQ20-M 25 mg/kg/day gavage 14 days
# [7] = serum, 25 mg/kg/day, DEP down-regulated in WD
# [8] = serum, 25 mg/kg/day, DEP up-regulated in WD
# [9] = serum, 50 mg/kg/day, DEP down-regulated in WD
# [10] = serum, 50 mg/kg/day, DEP up-regulated in WD
smiles,measurement,setting,value
CN(C)CCNCCc1ccc2c(Cl)cc(Cl)c(N)c2n1 [TDMQ20],copper content in feces versus untreated WD mice or DPA 200 mg/kg/day,"[1]; TX mice, TDMQ20 25 or 50 mg/kg/day",significantly higher
same,Cu content Brain,[1]; [4],3.5 ± 0.1 mg/kg
same,Cu content Feces,[1]; [4],142 ± 10 mg/kg
same,Cu content Kidney,[1]; [4],11.0 ± 1.7 mg/kg
same,Cu content Liver,[1]; [4],200 ± 14 mg/kg
same,Cu content Serum,[1]; [4],3.5 ± 0.6 mg/L
same,Cu content Urine,[1]; [4],0.98 ± 0.05 mg/L
same,Cu content Brain,[1]; [5],3.2 ± 0.2 mg/kg
same,Cu content Feces,[1]; [5],88 ± 3 mg/kg
same,Cu content Kidney,[1]; [5],5.5 ± 0.3 mg/kg
same,Cu content Liver,[1]; [5],290 ± 4 mg/kg
same,Cu content Serum,[1]; [5],0.63 ± 0.04 mg/L
same,Cu content Urine,[1]; [5],0.76 ± 0.13 mg/L
same,Cu content Brain,[1]; [6],3.3 ± 0.2 mg/kg
same,Cu content Feces,[1]; [6],129 ± 4 mg/kg
same,Cu content Kidney,[1]; [6],5.0 ± 0.4 mg/kg
same,Cu content Liver,[1]; [6],256 mg/kg and 256 ± 8 mg/kg
same,Cu content Serum,[1]; [6],0.83 ± 0.12 mg/L
same,Cu content Urine,[1]; [6],0.67 ± 0.10 mg/L
same,"copper concentration in urine, concentration ratio TDMQ20-H/WD","[1]; TX mice, TDMQ20 at 50 mg/kg, factor versus WD mice, 50 mg/kg",1.8 and 1.75
same,"concentration of copper in kidney, factor versus WD mice","[1]; TX mice, TDMQ20 at 50 mg/kg, ratio TDMQ20-H/WD",1.64
same,copper concentration in the brain versus WD mice,"[1]; mouse, in vivo",no increase of copper concentration
same,serum DEPs TDMQ20-H/control ratio,[2]; TDMQ20 50 mg/kg,~1
same,serum DEPs after treatment,[2]; TDMQ20 at 25 or 50 mg/kg,reversed to normal values
same,"TDMQ20-M/ctrl fold change: Alpha-aminoadipic semialdehyde synthase, mitochondrial (Aass)",[2]; [7],0.97
same,TDMQ20-M/ctrl fold change: Cystatin-C (Cst3),[2]; [7],0.88
same,TDMQ20-M/ctrl fold change: Elongation factor 1-delta (Eef1d),[2]; [7],0.85
same,"TDMQ20-M/ctrl fold change: GrpE protein homolog 1, mitochondrial (Grpel1)",[2]; [7],0.95
same,TDMQ20-M/ctrl fold change: Transgelin-2 (Tagln2),[2]; [7],0.87
same,TDMQ20-M/ctrl fold change: Ig heavy chain V region 1-72 (Ighv1-72),[2]; [8],1.08
same,TDMQ20-M/ctrl fold change: Regucalcin (Rgn),[2]; [8],1.06
same,TDMQ20-M/ctrl fold change: Ribonuclease 4 (Rnase4),[2]; [8],1.10
same,TDMQ20-M/ctrl fold change: Triokinase/FMN cyclase (Tkfc),[2]; [8],1.07
same,TDMQ20-M/ctrl fold change: Tropomyosin alpha-3 chain (Tpm3),[2]; [8],1.11
same,"TDMQ20-H/ctrl fold change: Alpha-aminoadipic semialdehyde synthase, mitochondrial (Aass)",[2]; [9],0.93
same,TDMQ20-H/ctrl fold change: Cystatin-C (Cst3),[2]; [9],0.92
same,TDMQ20-H/ctrl fold change: Elongation factor 1-delta (Eef1d),[2]; [9],0.88
same,"TDMQ20-H/ctrl fold change: GrpE protein homolog 1, mitochondrial (Grpel1)",[2]; [9],1.04
same,TDMQ20-H/ctrl fold change: Transgelin-2 (Tagln2),[2]; [9],0.91
same,TDMQ20-H/ctrl fold change: Ig heavy chain V region 1-72 (Ighv1-72),[2]; [10],1.15
same,TDMQ20-H/ctrl fold change: Regucalcin (Rgn),[2]; [10],0.88
same,TDMQ20-H/ctrl fold change: Ribonuclease 4 (Rnase4),[2]; [10],1.03
same,TDMQ20-H/ctrl fold change: Triokinase/FMN cyclase (Tkfc),[2]; [10],0.95
same,TDMQ20-H/ctrl fold change: Tropomyosin alpha-3 chain (Tpm3),[2]; [10],0.95
same,level of CP compared to WD mice,[3]; TDMQ20 at 25 or 50 mg/kg,significantly increased
same,CP level compared with control mice,[3]; TDMQ20 25 mg/kg,equal
same,CP level compared with control mice,[3]; TDMQ20 50 mg/kg,higher
